{"source": "patent US11958843B1", "about": "“2-(benzo[d]oxazol-2-yl)-n′-(2-(5-phenyl-1,3,4-oxadiazol-2-ylthio)acetoxy)acetimidamide as an antimicrobial compound” (priority 2023, dated 2024)", "system": "Bacillus cereus, Staphylococcus aureus, Pseudomonas aeruginosa, Escherichia coli, Aspergillus flavus, Chrysosporium keratinophilum", "test": "Agar plate disc-diffusion antimicrobial activity", "format": "cell-based", "details": "disc wetted with 10 μL of 10 mg/mL in DMSO; 37° C., 48 h (72 h for fungi); gram positive and gram-negative bacteria and fungi; result in words only", "description": "The agar plate disc-diffusion method was applied. Sterilized filter papers (6 mm in diameter) were wetted with 10 μL of a solution of 2-(benzo[d]oxazol-2-yl)-N′-(2-(5-phenyl-1,3,4-oxadiazol-2-ylthio)acetoxy)acetimidamide (3) to be tested, containing 10 mg/mL in DMSO, and the discs were allowed to air dry. The discs were then placed onto the surface of agar plates (nutrient agar for bacteria and Sabouraud's dextrose agar for fungi) seeded with the test organism. Each plate contained 15 mL of the agar medium, previously seeded with 0.2 mL of the broth culture of each organism pregrown for 18 hours. The plates were incubated at 37° C. for 48 h, and 72 h for fungi. The inhibition zones were measured in mm. Discs impregnated with DMSO were used as a control, and its inhibition zone was subtracted from the tested compound actual inhibition zone. […] The antibacterial activity was screened against gram positive bacteria namely Bacillus cereus and Staphylococcus aureus and gram-negative bacterial strains namely Pseudomonas aeruginosa and Escherichia coli, while the antifungal activity was screened against Aspergillus flavus and Chrysosporium keratinophilum.", "data": [{"smiles": "N/C(Cc1nc2ccccc2o1)=N\\OC(=O)CSc1nnc(-c2ccccc2)o1", "note": "[compound 3, 2-(benzo[d]oxazol-2-yl)-N′-(2-(5-phenyl-1,3,4-oxadiazol-2-ylthio)acetoxy)acetimidamide]", "values": [{"measurement": "antimicrobial activities (inhibition zones)", "result": "high antimicrobial activities"}]}]}
